These results are taken from PMC5599593, “A general reaction mechanism for carbapenem hydrolysis by mononuclear and binuclear metallo-β-lactamases” (Nature Communications, 2017).

Type in all cases: biochemical
Experiment [1] concerns the target T1, mono-Zn(II)-Sfh-I (Serratia fonticola, UniProt Q9RMI1).
T1 construct: gene sfhI; expressed from pET-26b; anion exchange and size exclusion purification; mono-Zn(II) form
Nature of the experiment: stopped-flow absorption (pre-steady state); RFQ Zn K-edge XAS of ES complex. Conditions: 50 mM Hepes pH 7, 4 °C.

For experiment [2], the target named is T2, bi-Zn(II)-BcII (Bacillus cereus, UniProt P04190).
T2 construct: gene blm; expressed as N-terminal GST fusion, GST removed with thrombin; bi-Zn(II) form
Nature of the experiment: rapid-freeze-quench X-ray absorption spectroscopy. As to conditions: 10 ms reaction.

The target of experiment [3] is T3, bi-Zn(II)-NDM-1 (Klebsiella pneumoniae, UniProt C7C422).
T3 construct: gene blaNDM-1
Description: stopped-flow absorption, single turnover. Conditions: 100 mM Hepes pH 7.5, 200 mM NaCl, 300 µM ZnSO4, 6 °C.

In experiment [4] the target is T3, bi-Zn(II)-NDM-1. Description: stopped-flow absorption. As to conditions: 100 mM Hepes pH 7.5, 200 mM NaCl, 300 µM ZnSO4, 6 °C.

T3 sequence (C7C422 27-270 limits assumed): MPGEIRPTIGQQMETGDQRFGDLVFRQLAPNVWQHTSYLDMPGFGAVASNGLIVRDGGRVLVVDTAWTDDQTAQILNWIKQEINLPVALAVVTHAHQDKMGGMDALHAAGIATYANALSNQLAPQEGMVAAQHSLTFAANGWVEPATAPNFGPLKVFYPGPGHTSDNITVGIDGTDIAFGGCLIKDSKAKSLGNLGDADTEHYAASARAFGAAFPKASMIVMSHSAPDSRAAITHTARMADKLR
T1 sequence (Q9RMI1 entry or part of it): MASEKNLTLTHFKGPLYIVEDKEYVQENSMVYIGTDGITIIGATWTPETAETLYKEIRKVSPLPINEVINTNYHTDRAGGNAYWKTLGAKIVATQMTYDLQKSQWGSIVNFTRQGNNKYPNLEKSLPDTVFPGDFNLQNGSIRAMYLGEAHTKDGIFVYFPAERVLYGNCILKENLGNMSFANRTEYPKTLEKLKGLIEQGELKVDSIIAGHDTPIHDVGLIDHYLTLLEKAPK
T2 sequence (P04190 31-257): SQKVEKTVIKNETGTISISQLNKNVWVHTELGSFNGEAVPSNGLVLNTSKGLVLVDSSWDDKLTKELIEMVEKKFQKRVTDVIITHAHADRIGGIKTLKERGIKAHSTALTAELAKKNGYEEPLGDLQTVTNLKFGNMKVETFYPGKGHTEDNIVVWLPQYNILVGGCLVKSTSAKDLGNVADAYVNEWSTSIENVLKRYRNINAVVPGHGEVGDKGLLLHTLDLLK

As for `C[C@@H](O)[C@H]1C(=O)N2C(C(=O)O)=C(SCCN=CN)C[C@H]12` [imipenem], the “stopped-flow absorption (pre-steady state); RFQ Zn K-edge XAS of ES complex” value in experiment [1] was “imipenem hydrolysis by the mono-Zn(II) B2 lactamase Sfh-I”. The “rapid-freeze-quench X-ray absorption spectroscopy” value in experiment [2] was “X-ray absorption spectroscopy to analyse hydrolysis of imipenem by the B1 enzyme bi-Zn(II)-BcII”. In addition, in experiment [3], the “stopped-flow absorption, single turnover” value is listed as “Hydrolysis of imipenem by bi-Zn(II)-NDM-1 under single turnover conditions”.

On to `C[C@@H](O)[C@H]1C(=O)N2C(C(=O)O)=C(S[C@@H]3CN[C@H](C(=O)N(C)C)C3)[C@H](C)[C@H]12` [meropenem], for which, in experiment [4], the stopped-flow absorption result is listed as “We also assayed hydrolysis of another carbapenem, meropenem, by bi-Zn(II)-NDM-1”.
